# Source: patent US10150755B2, “ASK1 inhibitor compounds and uses thereof” (Seal Rock Therapeutics, Inc., priority 2017, dated 2018)
# Biological target: ASK1 (Homo sapiens (Human), UniProt Q99683)
# Assay: ASK1 Kinase Assay (Promega ASK1 Kinase Enzyme System, ADP-Glo)
# Type: biochemical
# Conditions: enzyme 50 nM, ATP 10 μM
# Description: The ASK1 enzymatic assay was run following Promega ASK1 Kinase Enzyme System (Cat #V3881). The kit provides the protocol, enzymes and all reagents necessary to run an assay. Firstly, the compounds, enzyme, substrate and ATP were diluted in provided assay buffer. The final concentration of the enzyme was 50 nM, substrate (Myelin basic protein) 1 μg/ml and ATP 10 μM. The compound and the enzyme were pre-incubated in a 384 well white solid bottom plate (Greiner, Cat#784075) for 10 minutes. After incubation, the substrate and ATP were added and incubated for further 60 minutes. After 60 minutes, ADP-Glo™ was added and plate was incubated for another 40 minutes. After 40 minutes, Kinase Detection Reagent was added and the plate was incubated for 45 minutes. After 45 minutes, plate was read on Perkin Elmer EnVision using luminescence read (0.5 seconds/well).
# Chain of ASK1 (Q99683 649-946 limits assumed): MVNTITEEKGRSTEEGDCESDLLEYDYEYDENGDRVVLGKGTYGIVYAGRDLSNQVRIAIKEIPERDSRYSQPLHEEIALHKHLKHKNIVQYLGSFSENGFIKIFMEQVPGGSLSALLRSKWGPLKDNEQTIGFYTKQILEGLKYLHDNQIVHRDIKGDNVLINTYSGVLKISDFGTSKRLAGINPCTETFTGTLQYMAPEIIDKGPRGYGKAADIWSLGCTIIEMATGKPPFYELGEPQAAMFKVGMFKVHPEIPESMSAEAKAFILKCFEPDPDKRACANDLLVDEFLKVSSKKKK
row,IC50,SMILES
1,< 0.2 µM,"CNC(=O)c1ccc2c(c1)CN(c1cccc(-c3nncn3C3CC3)n1)C2=O [Compound 3, 2-(6-(4-cyclopropyl-4H-1,2,4-triazol-3-yl)pyridin-2-yl)-N-methyl-1-oxoisoindoline-5-carboxamide]"
2,< 0.2 µM,"COCCNC(=O)c1ccc2c(c1)CN(c1cccc(-c3nncn3C3CC3)n1)C2=O [Compound 4, 2-(6-(4-cyclopropyl-4H-1,2,4-triazol-3-yl)pyridin-2-yl)-N-(2-methoxyethyl)-1-oxoisoindoline-5-carboxamide]"
3,< 0.2 µM,"O=C(NCCn1ccnc1)c1ccc2c(c1)CN(c1cccc(-c3nncn3C3CC3)n1)C2=O [Compound 5, N-(2-(1H-imidazol-1-yl)ethyl)-2-(6-(4-cyclopropyl-4H-1,2,4-triazol-3-yl)pyridin-2-yl)-1-oxoisoindoline-5-carboxamide]"
4,< 0.2 µM,"O=C1c2ccc(C(=O)n3cccn3)cc2CN1c1cccc(-c2nncn2C2CC2)n1 [Compound 6, 2-(6-(4-cyclopropyl-4H-1,2,4-triazol-3-yl)pyridin-2-yl)-5-(1H-pyrazole-1-carbonyl)isoindolin-1-one]"
5,< 0.2 µM,"O=C(NC1CCOCC1)c1ccc2c(c1)CN(c1cccc(-c3nncn3C3CC3)n1)C2=O [Compound 9, 2-(6-(4-cyclopropyl-4H-1,2,4-triazol-3-yl)pyridin-2-yl)-1-oxo-N-(tetrahydro-2H-pyran-4-yl)isoindoline-5-carboxamide]"
6,< 0.2 µM,"O=C(c1ccc2c(c1)CN(c1cccc(-c3nncn3C3CC3)n1)C2=O)N1CCCC1 [Compound 18, 2-(6-(4-cyclopropyl-4H-1,2,4-triazol-3-yl)pyridin-2-yl)-5-(pyrrolidine-1-carbonyl)isoindolin-1-one]"
7,< 0.2 µM,"O=C(c1ccc2c(c1)CN(c1cccc(-c3nncn3C3CC3)n1)C2=O)N1CCC1 [Compound 19, 5-(azetidine-1-carbonyl)-2-(6-(4-cyclopropyl-4H-1,2,4-triazol-3-yl)pyridin-2-yl)isoindolin-1-one]"
8,< 0.2 µM,"O=C1CN(C(=O)c2ccc3c(c2)CN(c2cccc(-c4nncn4C4CC4)n2)C3=O)CCN1 [Compound 20, 2-(6-(4-cyclopropyl-4H-1,2,4-triazol-3-yl)pyridin-2-yl)-5-(3-oxopiperazine-1-carbonyl)isoindolin-1-one]"
9,< 0.2 µM,"O=C(c1ccc2c(c1)CN(c1cccc(-c3nncn3C3CC3)n1)C2=O)N1C[C@H]2CC[C@@H](C1)O2 [Compound 21, 5-((1R,5S)-8-oxa-3-azabicyclo[3.2.1]octane-3-carbonyl)-2-(6-(4-cyclopropyl-4H-1,2,4-triazol-3-yl)pyridin-2-yl)isoindolin-1-one]"
10,< 0.2 µM,"CO[C@@H]1CCN(C(=O)c2ccc3c(c2)CN(c2cccc(-c4nncn4C4CC4)n2)C3=O)C1 [Compound 22, (R)-2-(6-(4-cyclopropyl-4H-1,2,4-triazol-3-yl)pyridin-2-yl)-5-(3-methoxypyrrolidine-1-carbonyl)isoindolin-1-one]"
11,< 0.2 µM,"COC(=O)C1CCN(C(=O)c2ccc3c(c2)CN(c2cccc(-c4nncn4C4CC4)n2)C3=O)CC1 [Compound 23, methyl 1-(2-(6-(4-cyclopropyl-4H-1,2,4-triazol-3-yl)pyridin-2-yl)-1-oxoisoindoline-5-carbonyl)piperidine-4-carboxylate]"
12,< 0.2 µM,"O=C(c1ccc2c(c1)CN(c1cccc(-c3nncn3C3CC3)n1)C2=O)N1CCSCC1 [Compound 24, 2-(6-(4-cyclopropyl-4H-1,2,4-triazole-3-yl)pyridin-2-yl)-5-(thiomorpholine-4-carbonyl)isoindolin-1-one]"
13,< 0.2 µM,"CSC1CCN(C(=O)c2ccc3c(c2)CN(c2cccc(-c4nncn4C4CC4)n2)C3=O)CC1 [Compound 25, 2-(6-(4-cyclopropyl-4H-1,2,4-triazol-3-yl)pyridin-2-yl)-5-(4-(methylthio)piperidine-1-carbonyl)isoindolin-1-one]"
14,< 0.2 µM,"O=C(c1cc2c(cc1Cl)C(=O)N(c1cccc(-c3nncn3C3CC3)n1)C2)N1CCOCC1 [Compound 26, 6-chloro-2-(6-(4-cyclopropyl-4H-1,2,4-triazol-3-yl)pyridin-2-yl)-5-(morpholine-4-carbonyl)isoindolin-1-one]"
15,< 0.2 µM,"O=C1c2ccc(-c3cc[nH]n3)cc2CN1c1cccc(-c2nncn2C2CC2)n1 [Compound 28, 2-(6-(4-cyclopropyl-4H-1,2,4-triazol-3-yl)pyridin-2-yl)-5-(1H-pyrazol-3-yl)isoindolin-1-one]"
16,< 0.2 µM,"Cn1nccc1-c1ccc2c(c1)CN(c1cccc(-c3nncn3C3CC3)n1)C2=O [Compound 29, 2-(6-(4-cyclopropyl-4H-1,2,4-triazol-3-yl)pyridin-2-yl)-5-(1-methyl-1H-pyrazol-5-yl)isoindolin-1-one]"
17,< 0.2 µM,"Cn1cnc(-c2ccc3c(c2)CN(c2cccc(-c4nncn4C4CC4)n2)C3=O)c1 [Compound 30, 2-(6-(4-cyclopropyl-4H-1,2,4-triazol-3-yl)pyridin-2-yl)-5-(1-methyl-1H-imidazol-4-yl)isoindolin-1-one]"
18,< 0.2 µM,"Nc1ccc2c(c1)CN(c1cccc(-c3nncn3C3CC3)n1)C2=O [Compound 31, 5-amino-2-(6-(4-cyclopropyl-4H-1,2,4-triazol-3-yl)pyridin-2-yl)isoindolin-1-one]"
19,0.2 to 1 µM,"O=C1c2ccc(NC(=O)C3(c4ccccc4)CC3)cc2CN1c1cccc(-c2nncn2C2CC2)n1 [Compound 33, N-(2-(6-(4-Cyclopropyl-4H-1,2,4-triazol-3-yl)pyridin-2-yl)-1-oxoisoindolin-5-yl)-1-phenylcyclopropane-1-carboxamide]"
20,< 0.2 µM,"Cn1cncc1-c1ccc2c(c1)C(=O)N(c1cccc(-c3nncn3C3CC3)n1)C2 [Compound 36, 2-(6-(4-cyclopropyl-4H-1,2,4-triazol-3-yl)pyridin-2-yl)-6-(1-methyl-1H-imidazol-5-yl)isoindolin-1-one]"
21,< 0.2 µM,"O=C1c2cc(-n3ccnc3)ccc2CN1c1cccc(-c2nncn2C2CC2)n1 [Compound 37, 2-(6-(4-cyclopropyl-4H-1,2,4-triazol-3-yl)pyridin-2-yl)-6-(1H-imidazol-1-yl)isoindolin-1-one]"
22,< 0.2 µM,"O=C1c2cc(-n3cnc4ccccc43)ccc2CN1c1cccc(-c2nncn2C2CC2)n1 [Compound 38, 6-(1H-Benzo[d]imidazol-1-yl)-2-(6-(4-cyclopropyl-4H-1,2,4-triazol-3-yl)pyridin-2-yl)isoindolin-1-one]"
23,< 0.2 µM,"Cn1ccc(-c2ccc3c(c2)C(=O)N(c2cccc(-c4nncn4C4CC4)n2)C3)n1 [Compound 39, 2-(6-(4-cyclopropyl-4H-1,2,4-triazol-3-yl)pyridin-2-yl)-6-(1-methyl-1H-pyrazol-3-yl)isoindolin-1-one]"
24,< 0.2 µM,"Cc1ccc(-c2ccc3c(c2)C(=O)N(c2cccc(-c4nncn4C4CC4)n2)C3)cn1 [Compound 42, 2-(6-(4-cyclopropyl-4H-1,2,4-triazol-3-yl)pyridin-2-yl)-6-(6-methylpyridin-3-yl)isoindolin-1-one]"
25,< 0.2 µM,"COc1ccc(-c2ccc3c(c2)C(=O)N(c2cccc(-c4nncn4C4CC4)n2)C3)cn1 [Compound 45, 2-(6-(4-cyclopropyl-4H-1,2,4-triazol-3-yl)pyridin-2-yl)-6-(6-methoxypyridin-3-yl)isoindolin-1-one]"

row,SMILES,IC50
1,"CCNc1ccc2c(c1)CN(c1cccc(-c3nncn3C3CC3)n1)C2=O [Compound 35, 2-(6-(4-cyclopropyl-4H-1,2,4-triazol-3-yl)pyridin-2-yl)-5-(ethylamino)isoindolin-1-one]",< 0.2 µM
